Test results reported in patent publication US20070219243A1, “Method for improving the pharmacokinetics of HIV integrase inhibitors” (priority 2005, published 2007).
Entries after “also recorded” stand apart in the source; their conditions may differ.

Experiments:
[1] = in vivo
Protocol: Pharmacokinetic (PK) blood draws were performed on days 7, 17, and 27.

[2] = human, in vivo
Protocol: Safety, tolerability, pharmacokinetics, and efficacy were monitored through Day 21 after dosing. The active treatments in the 5 cohorts were as follows: […] The duration of the study was 21 days, with 10 days of treatment and 11 days of follow-up. […] Matching placebo was administered orally under fed conditions. For Cohort 5 only, 100 mg RTV capsules were coadministered orally under fed conditions. […] Pharmacokinetics: The pharmacokinetic parameters of Compound 1 in plasma and peripheral blood mononuclear cells were summarized using descriptive statistics.

HIV-1 = experiment: Example 2: exposure-response (Emax model) and inhibitory quotient; format: in vivo; settings: simple Emax model on Ctau
HIV-1 integrase = HIV-1 integrase (Human immunodeficiency virus type 1 group M subtype B, UniProt P04585); settings: after 10 days of monotherapy; through Day 21
[3] = Example 7: safety of single 400 mg dose; format: in vivo, human; settings: single oral 400 mg dose, fasted and fed, healthy Japanese males
Protocol: The subjects were admitted to the medical institution in the afternoon on the day before administration (“Day-1”). […] The subjects were discharged the day after administration (“Day 2”). Thus, the subjects were hospitalized for a total of three days. Follow up assessment for safety was performed 6 to 8 days after administration (“Days 7 to 9”).

[4] = Example 3: pharmacokinetics of Compound 1 and RTV at a range of RTV doses; settings: for Ctau / AUC / Cmax / half-life: Compound 1 in plasma, mean (CV %); for IQ: based on protein binding-adjusted IC50 in PBMCs; for AUC / Cmax / half-life: both, human, plasma, oral; for AUC: AUCtau
[5] = Example 7: food effect on pharmacokinetics of Compound 1 in healthy Japanese males; format: in vivo; settings: male, human, plasma, po, 400 mg, single oral dose 400 mg, Mean ± SD (n = 6); for half-life: read-out: t1/2 λz (converted)
Protocol: Subjects in the 400 mg fasted cohort received an additional 400 mg dose with breakfast after a washout period (generally a minimum of ten days after the initial administration). The interval of ten days between the two doses was considered appropriate for eliminating any within-subject carryover effects. […] Doses were administered at similar times for each subject in each treatment period. […] Plasma samples were isolated from healthy subjects administered with Compound 1. The plasma samples were extracted by solid phase extraction using Empore™ Disk Plate (C8SD), and then measured by high-performance liquid chromatography/tandem mass spectrometry (LC/MS/MS) (HPLC model 2795 separations module from Waters; mass spectrometer model AP14000 from MDS SCIEX). Ionization and detection were performed with electrospray ionization and positive ion detection with multiple reaction monitoring, respectively. […] To 50 μL of plasma samples spiked with […] each of 90% acetonitrile and 20 mmol/L ammonium formate-formic acid buffer (pH 3.0)/acetonitrile (10:90, v/v), 10 μL each of internal standard solution was added. To these samples, 200 μL of 0.1% formic acid in 10% acetonitrile was added. These solutions were then mixed for 10 seconds and centrifuged at 10,000 rpm for 5 minutes at 4° C. A 250 μL aliquot of the supernatant was added to a Empore™ Disk Plate (C8SD) (conditioned with 150 μL of acetonitrile and 200 μL of 0.1% formic acid in this order). The plate was washed twice with 200 μL of 0.1% formic acid in 20% acetonitrile and eluted twice with 100 μL of 0.1% formic acid in 80% acetonitrile (200 μL in total). To the eluates, 200 μL of 0.1% formic acid was added and mixed. Then, 10 μL of each solution was injected into the LC/MS/MS system and analyzed.

[6] = Example 5: drug-drug interaction of zidovudine and Compound 1/r; settings: human, in vivo
From the text: Zidovudine is a NRTI used in HIV patients.
PK parameters were estimated using WinNonlin™ 5.0.1 (Pharsight Corporation, Mountain View, Calif., USA).

[7] = Example 2: safety in subjects infected with HIV-1; format: in vivo, human
Protocol: Safety: Adverse events, vital signs, electrocardiogram, ophthalmologic examination, and clinical laboratory tests were evaluated for safety. Safety: The proportion of subjects with adverse events was summarized by treatment, system organ class and preferred term for treatment-emergent adverse events, treatment-related adverse events, serious adverse events, and adverse events leading to study drug discontinuation. Adverse events were coded using the Medical Dictionary for Regulatory Activities (MedDRA®) version 8.1. […] Laboratory results were expressed on the original measurement scale and in terms of the toxicity grade. Changes from baseline in quantitative laboratory tests were summarized by visit.

[8] = Example 1: pharmacokinetics of Compound 1 alone and with RTV in healthy subjects; format: in vivo, human; settings: for Ctau / Cmax / half-life / AUC: Compound 1 in plasma; for AUC: N = 12, read-out: AUC (AUCtau)
From the text: The study was an open-label, fixed-sequence, crossover, pharmacokinetic study with 12 subjects. The subjects were healthy males and non-pregnant, nonlactating females between 18 and 45 years of age, inclusive. The duration of the study was 20 days, with Period 1 of Days 1 to 10 and Period 2 of days 11 to 20. Follow-up contact was on day 27.

[9] = Compound 1 125 mg + 20 mg RTV QD
[10] = Compound 1 125 mg + 50 mg RTV QD
[11] = Compound 1 125 mg + 100 mg RTV QD
[12] = Compound 1 125 mg + 200 mg RTV QD
[13] = 200 mg of Compound 1 twice-daily, 6 subjects
[14] = both sexes, human, plasma, oral, 100 mg, Day 10, Compound 1 100 mg twice daily alone, mean (% CV)
[15] = both sexes, human, plasma, oral, Day 11, Compound 1 100 mg twice daily + single dose RTV 100 mg, mean
[16] = both sexes, human, plasma, oral, Day 20, Compound 1 100 mg + RTV 100 mg twice daily, mean

For `COc1cc2c(cc1Cc1cccc(Cl)c1F)c(=O)c(C(=O)O)cn2[C@H](CO)C(C)C` [Compound 1, 6-(3-chloro-2-fluorobenzyl)-1-[(2S)-1-hydroxy-3-methylbutan-2-yl]-7-methoxy-4-oxo-1,4-dihydroquinoline-3-carboxylic acid], which “PK (Cmax, AUCtau, Ctau) during co-administration vs alone” value [1] is on record?
Its value is “unaffected”.

What about the “Dose proportionality of pharmacokinetics” value [2] of the same molecule?
The value was “did not exhibit dose-proportional increases”.

What about the Emax (HIV-1) of the same molecule?
The Emax was 2.32 log10 copies/mL reduction from baseline.

What about the “HIV-1 integrase mutations corresponding to Compound 1 resistance” value (HIV-1 integrase) of the same molecule?
Its value is “no subject developed HIV-1 integrase mutations; also recorded: No Compound 1 resistance mutations were detected”.

And the Safety and tolerability [3]?
The Safety and tolerability was “safe and well tolerated”.

What about the Ctau [4, 9] of the same molecule?
Its Ctau is 73.8 (60.2) ng/ml.

What about the Ctau [4, 10] of the same molecule?
Its Ctau is 251 (27.7) ng/ml.

And the Ctau [4, 11]?
Its Ctau is 380 (39.9) ng/ml.

What about the Ctau [4, 12] of the same molecule?
Its Ctau is 410 (26.0) ng/ml.

What about the IQ [4, 9] of the same molecule?
The IQ was 10.3.

And the IQ [4, 10]?
The IQ was 35.0.

What about the IQ [4, 11] of the same molecule?
Its IQ is 53.0.

What about the IQ [4, 12] of the same molecule?
Its IQ is 57.2.

What about the AUC ([4]; Compound 1 125 mg + 20 mg RTV QD, after a meal) of the same molecule?
The AUC was 10200 ng·h/mL.

What about the AUC [4, 10] of the same molecule?
Its AUC is 15800 ng·h/mL.

And the AUC [4, 11]?
The AUC was 20300 ng·h/mL.

What about the AUC [4, 12] of the same molecule?
The AUC was 20600 ng·h/mL.

What about the Cmax [4, 9] of the same molecule?
The Cmax was 1370 ng/mL.

What about the Cmax [4, 10] of the same molecule?
Its Cmax is 1560 ng/mL.

And the Cmax [4, 11]?
Its Cmax is 1830 ng/mL.

And the Cmax [4, 12]?
The Cmax was 2030 ng/mL.

And the half-life [4, 9]?
Its half-life is 260 min.

And the half-life [4, 10]?
The half-life was 571 min.

And the half-life [4, 11]?
Its half-life is 690 min.

What about the half-life [4, 12] of the same molecule?
Its half-life is 858 min.

What about the AUC(0-inf) ([5]; Fasted) of the same molecule?
Its AUC(0-inf) is 1450 ± 308 ng·h/mL.

What about the Cmax ([5]; Fasted) of the same molecule?
The Cmax was 264 ± 78 ng/mL.

What about the Tmax ([5]; Fasted) of the same molecule?
Its Tmax is 2.5 ± 1.2 h.

What about the half-life ([5]; Fasted) of the same molecule?
Its half-life is 324 ± 60 min.

And the AUC(0-inf) ([5]; Fed)?
Its AUC(0-inf) is 3940 ± 1070 ng·h/mL.

What about the Cmax ([5]; Fed) of the same molecule?
The Cmax was 903 ± 391 ng/mL.

What about the Tmax ([5]; Fed) of the same molecule?
The Tmax was 2.3 ± 1 h.

And the half-life ([5]; Fed)?
The half-life was 192 ± 18 min.

And the “Half-life (48 hour PK profile)” value [6]?
The value was “supporting once daily dosing”.

What about the “Subjects with treatment-emergent Grade 3 or 4 laboratory abnormalities” value ([7]; 50 mg of Compound 1+RTV once-daily, 6 subjects) of the same molecule?
Its value is 1 subject.

And the “Subjects with treatment-related fatigue” value [7, 13]?
The value was 2 subjects.

And the “Subjects with treatment-related nausea” value [7, 13]?
Its value is 2 subjects.

And the “Subjects with treatment-emergent Grade 3 or 4 laboratory abnormalities” value ([7]; 400 mg of Compound 1 twice-daily, 6 subjects)?
The value was 1 subject.

What about the Tolerability ([7]; all dose levels, 10 days, HIV-1 infected subjects) of the same molecule?
The Tolerability was “generally well tolerated”.

And the “mean steady-state exposure (AUCtau, Day 10) lower compared with mean exposure (AUCinf) after a single dose (Day 1)” value ([8]; Compound 1 100 mg alone, indicating autoinduction of metabolism)?
Its value is “approximately 20%”.

And the Ctau ([8]; end of dosing interval, Day 1, Compound 1 100 mg alone, mean (% CV))?
Its Ctau is 19.2 (52.5) ng/mL.

And the Ctau ([8]; Day 10, Compound 1 100 mg twice daily alone, mean (% CV))?
Its Ctau is 12.4 (63.7) ng/mL.

What about the Ctau ([8]; Day 11, Compound 1 100 mg twice daily + single dose RTV 100 mg, mean) of the same molecule?
Its Ctau is 543.3 ng/mL.

What about the Ctau ([8]; Day 20, Compound 1 100 mg + RTV 100 mg twice daily, mean) of the same molecule?
Its Ctau is 1035.6 ng/mL.

What about the Cmax ([8]; both sexes, human, plasma, oral, 100 mg, Day 1, single dose Compound 1 100 mg alone, mean (% CV)) of the same molecule?
Its Cmax is 200 ng/mL.

What about the half-life ([8]; both sexes, human, plasma, oral, 100 mg, Day 1, single dose Compound 1 100 mg alone, median (min, max)) of the same molecule?
The half-life was 186 min.

What about the half-life ([8]; both sexes, human, plasma, oral, 100 mg, Day 10, Compound 1 100 mg twice daily alone, steady state, median (min, max)) of the same molecule?
Its half-life is 210 min.

What about the Cmax [8, 14] of the same molecule?
The Cmax was 164 ng/mL.

What about the AUC [8, 14] of the same molecule?
Its AUC is 719 ng·h/mL.

What about the AUC(0-inf) ([8]; both sexes, human, plasma, oral, 100 mg, read-out: AUC (AUCinf)) of the same molecule?
Its AUC(0-inf) is 908 ng·h/mL.

And the Cmax [8, 15]?
Its Cmax is 795 ng/mL.

What about the AUC [8, 15] of the same molecule?
The AUC was 6170 ng·h/mL.

And the half-life ([8]; both sexes, human, plasma, oral, Day 11, Compound 1 100 mg twice daily + single dose RTV 100 mg, median)?
Its half-life is 1090 min.

And the half-life ([8]; both sexes, human, plasma, oral, Day 20, Compound 1 100 mg + RTV 100 mg twice daily, steady state, median)?
The half-life was 570 min.

And the Cmax [8, 16]?
The Cmax was 1830 ng/mL.

What about the AUC [8, 16] of the same molecule?
The AUC was 14300 ng·h/mL.
